Data taken from PMC12720774, “Detergents alter the stability and lipid binding properties of the CD1d immunoreceptor” (Protein Science : A Publication of the Protein Society, 2025).
“And” between values parts separate entries of the source, which are not always exact repeats. Equal values may be shown once. Read-outs that look alike come from different tables or passages of the source.

Tests used:
[1] = molecular target: T1, recombinant human CD1d ectodomain/β2m complex (hCD1d) (Homo sapiens, UniProt P15813); experiment: Intrinsic tryptophan fluorescence (ITF) binding assay; details: 18:1 LPC titration with 0.05% CHAPS; read-out: K D (ITF) of lipid
T1 construct: TEV protease cleavage site ENLYFQS (C); BirA biotinylation site (C); His7 (C); made in house; host or cells: TurboCHO cells (GenScript)
Protocol: For ITF assays, the concentration of hCD1d was kept constant, and intrinsic Trp fluorescence (excitation at 285 nm, emission at 335 nm) was measured as a function of increasing detergent concentration (Fossum et al., [2023]) (Figure S2). The change in relative fluorescence intensity (F − F 0/F 0) provides an indication of binding. […] This was due to limited detergent solubility and decreased hCD1d stability in the presence of a large excess of detergent (see below). […] SDS was the exception, for which Trp fluorescence of hCD1d decreased with added detergent. This could indicate a unique conformational change or destabilization of the protein.
ITF spectra were recorded from 300 to 500 nm using a Horiba FL3‐21 Fluorometer with the excitation wavelength of 285 nm and excitation/emission slits of 6.2 nm. Fluorescence spectra of 50 to 100 nM hCD1d were acquired in the absence and presence of detergents in 1X PBS pH 7.4 at 25°C. Prior to data acquisition, hCD1d and detergent or lipid samples were incubated at 37°C overnight (~12 h) to simulate in vitro and in vivo loading conditions. […] For 18:1 LPC experiments, fluorescence spectra of 100 nM hCD1d were acquired in the absence and presence of 18:1 LPC in 1X PBS pH 7.4 at 25°C. […] For all ITF experiments, the change in fluorescence signal (F − F 0/F 0) was determined at 335 nm. Three replicates were performed, and data are presented as the mean ± standard deviation (n = 3). K D values were fitted with non‐linear regression in GraphPad Prism v10.1.

AF647‐labeled hCD1d [2] = molecular target: T2, AF647‐labeled hCD1d (Homo sapiens, UniProt P15813); experiment: Microscale thermophoresis (MST) binding assay; details: read-out: K D (MST) of lipid
T2 construct: TEV protease cleavage site ENLYFQS (C); BirA biotinylation site (C); His7 (C); made in house; host or cells: TurboCHO cells (GenScript)
From the text: (§1) The experimental limitations of ITF, such as low instrument sensitivity, high sample consumption, signal overlap with some ligands, and low throughput (Fossum et al., [2023]), made it necessary to employ alternative, complementary assays to quantify detergent binding to hCD1d. […] MST measures the diffusion of fluorescent molecules in response to microscopic temperature gradients (Seidel et al., [2013]). When a protein forms a complex with a ligand, changes in hydrodynamic properties, charge, or solvation energy alter its thermophoretic behavior, allowing detection of binding events. To perform MST experiments, Alexa Fluor 647 (AF647) dye was covalently attached to the primary amines of hCD1d via standard N‐hydroxysuccinimide coupling chemistry (Anderson et al., [1964]). The concentration of AF647‐hCD1d was kept constant, and the change in MST signal was measured as a function of increasing detergent concentration (Figure S3). Like ITF, any lipid or detergent that destabilizes CD1 can also alter the MST signal since unfolding changes the protein's Stokes radius and its thermophoretic behavior. […] This is why we compare MST results with ITF and nanoDSF, as described below.
(§2) For MST, hCD1d was fluorescently labeled with AF647‐NHS Ester (Invitrogen #A20006). Briefly, a 10 mM stock of AF647‐NHS was prepared in anhydrous DMSO. Then, 100 μL of 50 μM hCD1d in 1X PBS pH 7.4 was mixed with 1 μL of 10 mM AF647‐NHS (1:2 molar ratio of protein: dye). The mixture was allowed to react for 1 h in the dark at 25°C. Unreacted dye was removed from the protein–dye conjugate by performing size exclusion chromatography in the dark with a Superdex 200 Increase 10/300 GL column at a flow rate of 0.5 mL/min in SEC buffer (100 mM NaCl, 20 mM sodium phosphate, pH 7.2). The degree of labeling was determined by a NanoDrop spectrophotometer at A647 nm (dye absorbance) and A280 nm (hCD1d absorbance). The degree of labeling was determined from the ratio of dye concentration to protein concentration. The degree of labeling was ~75%.
(§3) MST experiments were performed using a Monolith NT.115 instrument (NanoTemper Technologies) using Monolith standard capillaries and the red excitation laser setup. The following settings were applied for all MST experiments: excitation power: 30%–50%, MST power: medium, before MST time: 3 s, MST on time (IR laser): 20 seconds, and after MST time: 1 s. MST measurements were analyzed using the Monolith Affinity Analysis software v2.3 and exported for plotting in GraphPad Prism v10.1. Three replicates were performed, and data are presented as the mean ± standard deviation (n = 3).
(§4) MST measurements of 100 nM AF647‐hCD1d were acquired in the absence and presence of detergents in 1X PBS pH 7.4 at 25°C. Prior to data acquisition, hCD1d and detergent or lipid samples were incubated at 37°C overnight (~12 h) to simulate in vitro and in vivo loading conditions. […] For 18:1 LPC experiments: MST data of 100 nM AF647‐hCD1d were acquired in the absence and presence of 18:1 LPC in 1X PBS pH 7.4 at 25°C.

hCD1d = hCD1d (Homo sapiens, UniProt P15813+P61769); experiment: Nano differential scanning fluorimetry (nanoDSF) thermal stability; format: binding; design: TEV protease cleavage site ENLYFQS (C); BirA biotinylation site (C); His7 (C); made in house; host or cells: TurboCHO cells (GenScript); details: absence vs presence of 200 μM 18:1 LPC; no detergent
From the text: We next sought to probe the ability of each detergent to influence the thermal stability of hCD1d. NanoDSF has been previously applied to measure lipid/detergent‐induced thermal stability changes in target proteins (Cecchetti et al., [2021]; Kotov et al., [2019]), but has not yet been applied to ligand binding to CD1. NanoDSF measures the ITF ratio (F 350 nm/F 330 nm) of proteins as a function of temperature to extract thermodynamic parameters. Given that ligand binding typically shifts the melting temperature of proteins, the effect of a ligand on protein stability can be approximated with the ΔT m value (the difference in T m with and without excess ligand) (Cecchetti et al., [2021]; Kotov et al., [2019]). We found all detergents tested to destabilize hCD1d, albeit to different degrees, with ΔT m values ranging from −0.8 to −14.2°C (Figures 4, S4, and Table 1).
Nano differential scanning fluorometry (nanoDSF) was performed using a Prometheus NT.48 (NanoTemper Technologies). Purified hCD1d at 1 μM in 1X PBS pH 7.4 was loaded into nanoDSF grade standard capillaries (NanoTemper Technologies) and exposed to temperatures ranging from 20 to 95°C with a thermal ramping rate of 1°C/min. Excitation power was set to 50%. The ratio of intrinsic fluorescence emission (F 350 nm/F 330 nm) was monitored. Melting temperatures (T m) were obtained from fitting the first derivative plots in the Prometheus NT.48 Software. The experiments were performed in triplicate, and data are presented as the mean ± standard deviation (n = 3).
For experiments with most detergents, prior to data acquisition, hCD1d and detergent or lipid samples were incubated at 37°C overnight (~12 h) to simulate in vitro and in vivo loading conditions. […] For 18:1 LPC experiments: nanoDSF spectra were acquired in the absence and presence of 18:1 LPC in 1X PBS pH 7.4 at 25°C.

AF647‐labeled hCD1d [3] = molecular target: T3, AF647‐labeled hCD1d (Homo sapiens, UniProt P15813+P61769); experiment: Microscale thermophoresis (MST) binding assay
T3 construct: TEV protease cleavage site ENLYFQS (C); BirA biotinylation site (C); His7 (C); made in house; host or cells: TurboCHO cells (GenScript)
From the text: as §1, §2, §3, §4

[4] = approximate, cited from earlier work
CD1c = system: CD1c; design: method as in Mansour et al., 2016; details: ref Mansour et al., 2016; cited from earlier work
[5] = 0.001 M detergent, 100 nM AF647‐hCD1d
[6] = Figure 5B, detergent binding to hCD1d, read-out: MST - Kd (uM) average
[7] = detergent with 100 nM AF647‐labeled hCD1d, 25°C, apparent, read-out: K D (MST)

T3 sequence (P61769+P15813 fused): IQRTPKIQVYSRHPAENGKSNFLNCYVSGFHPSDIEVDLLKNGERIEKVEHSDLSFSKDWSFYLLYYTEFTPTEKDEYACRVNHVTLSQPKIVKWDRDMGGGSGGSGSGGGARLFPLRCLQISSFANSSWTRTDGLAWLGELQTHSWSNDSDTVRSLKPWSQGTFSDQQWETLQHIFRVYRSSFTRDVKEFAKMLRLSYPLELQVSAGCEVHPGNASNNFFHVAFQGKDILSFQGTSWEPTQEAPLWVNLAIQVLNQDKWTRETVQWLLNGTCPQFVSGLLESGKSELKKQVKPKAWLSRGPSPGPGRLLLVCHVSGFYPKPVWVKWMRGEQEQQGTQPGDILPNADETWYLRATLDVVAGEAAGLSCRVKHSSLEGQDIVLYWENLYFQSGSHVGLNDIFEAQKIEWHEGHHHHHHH
T2 sequence (P15813 whole entry, looked up): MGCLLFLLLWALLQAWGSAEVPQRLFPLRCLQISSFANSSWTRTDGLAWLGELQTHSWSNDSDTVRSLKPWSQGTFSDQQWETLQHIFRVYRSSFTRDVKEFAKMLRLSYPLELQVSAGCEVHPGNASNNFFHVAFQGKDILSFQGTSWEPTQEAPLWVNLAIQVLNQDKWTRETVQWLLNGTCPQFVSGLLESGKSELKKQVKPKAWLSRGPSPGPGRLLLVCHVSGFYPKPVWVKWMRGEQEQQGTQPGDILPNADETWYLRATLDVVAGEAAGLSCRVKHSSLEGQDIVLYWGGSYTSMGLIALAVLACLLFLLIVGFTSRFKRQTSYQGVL
Sequence of hCD1d (P61769+P15813 fused): as the sequence (P61769+P15813 fused) above
T1 sequence (P15813 whole entry, looked up, the tested form may be a part, one chain of several): as the sequence (P15813 whole entry, looked up) above

Compound | Fnorm (rep 1-3) (AF647‐labeled hCD1d [3]; 3.05176e-8 M detergent) | Fnorm (rep 1-3) (AF647‐labeled hCD1d [3]; 6.10352e-8 M detergent) | Fnorm (rep 1-3) (AF647‐labeled hCD1d [3]; 1.2207e-7 M detergent) | Fnorm (rep 1-3) (AF647‐labeled hCD1d [3]; 2.44141e-7 M detergent) | Fnorm (rep 1-3) (AF647‐labeled hCD1d [3]; 4.88281e-7 M detergent) | Fnorm (rep 1-3) (AF647‐labeled hCD1d [3]; 9.76563e-7 M detergent) | Fnorm (rep 1-3) (AF647‐labeled hCD1d [3]; 1.95313e-6 M detergent) | Fnorm (rep 1-3) (AF647‐labeled hCD1d [3]; 3.90625e-6 M detergent) | Fnorm (rep 1-3) (AF647‐labeled hCD1d [3]; 7.8125e-6 M detergent) | Fnorm (rep 1-3) (AF647‐labeled hCD1d [3]; 1.5625e-5 M detergent) | Fnorm (rep 1-3) (AF647‐labeled hCD1d [3]; 3.125e-5 M detergent) | Fnorm (rep 1-3) (AF647‐labeled hCD1d [3]; 6.25e-5 M detergent) | Fnorm (rep 1-3) (AF647‐labeled hCD1d [3]; 0.000125 M detergent) | Fnorm (rep 1-3) (AF647‐labeled hCD1d [3]; 0.00025 M detergent) | Fnorm (rep 1-3) (AF647‐labeled hCD1d [3]; 0.0005 M detergent) | Fnorm (rep 1-3) (AF647‐labeled hCD1d [3]; [5]) | Kd (AF647‐labeled hCD1d [3]; [6]) [µM] | Kd (AF647‐labeled hCD1d [3]; [7]) [µM] | further results
CCCCCCCC/C=C\CCCCCCCC(=O)OC[C@@H](O)COP(=O)([O-])OCC[N+](C)(C)C [18:1 LPC, 1‐oleoyl‐2‐hydroxy‐sn‐glycero‐3‐phosphocholine] | – | – | – | – | – | – | – | – | – | – | – | – | – | – | – | – | – | – | Kd [1]: 59.9 ± 19.4 µM; Kd (AF647‐labeled hCD1d [2]; 18:1 LPC titration with 0.05% CHAPS): 5.6 ± 1.3 µM; Kd (AF647‐labeled hCD1d [2]; 18:1 LPC titration, absence of detergent, 100 nM AF647‐hCD1d, 25°C): ~7.7 µM and 7.7 µM; ΔT m (nanoDSF) of lipid (hCD1d): −8.1 ± 1.7 °C
NP‐40 | 785.26 ‰ and 791.115 ‰ and 789.222 ‰ | 784.438 ‰ and 791.56 ‰ and 788.778 ‰ | 784.577 ‰ and 791.858 ‰ and 788.445 ‰ | 783.564 ‰ and 789.878 ‰ and 788.022 ‰ | 786.159 ‰ and 790.976 ‰ and 787.911 ‰ | 783.182 ‰ and 790.102 ‰ and 788.409 ‰ | 785.891 ‰ and 792.21 ‰ and 790.819 ‰ | 790.454 ‰ and 796.89 ‰ and 795.418 ‰ | 794.424 ‰ and 799.885 ‰ and 798.852 ‰ | 798.147 ‰ and 805.399 ‰ and 802.688 ‰ | 808.083 ‰ and 815.048 ‰ and 810.611 ‰ | 810.692 ‰ and 818.134 ‰ and 815.29 ‰ | 813.488 ‰ and 820.003 ‰ and 816.128 ‰ | 817.047 ‰ and 822.493 ‰ and 816.971 ‰ | 814.88 ‰ and 822.01 ‰ and 817.951 ‰ | 817.154 ‰ and 821.721 ‰ and 817.771 ‰ | 15.1 | 15.1 ± 1.5 | CMC ([4]; ref Fisher catalogue): 290 µM; CMC ([4]; weight/volume, ref Fisher catalogue): 0.0179%
Triton X‐100 | 791.41 ‰ and 793.583 ‰ and 796.04 ‰ | 790.759 ‰ and 794.057 ‰ and 796.294 ‰ | 791.349 ‰ and 794.228 ‰ and 797.32 ‰ | 790.267 ‰ and 793.445 ‰ and 796.715 ‰ | 790.372 ‰ and 793.504 ‰ and 796.705 ‰ | 791.231 ‰ and 794.12 ‰ and 796.582 ‰ | 791.888 ‰ and 794.837 ‰ and 796.079 ‰ | 797.735 ‰ and 798.529 ‰ and 800.673 ‰ | 801.114 ‰ and 802.717 ‰ and 802.805 ‰ | 806.412 ‰ and 805.281 ‰ and 808.579 ‰ | 808.925 ‰ and 810.844 ‰ and 811.355 ‰ | 813.586 ‰ and 816.925 ‰ and 817.48 ‰ | 826.07 ‰ and 832.084 ‰ and 828.584 ‰ | 828.437 ‰ and 829.609 ‰ and 830.632 ‰ | 829.715 ‰ and 832.769 ‰ and 836.286 ‰ | 833.009 ‰ and 835.212 ‰ and 836.54 ‰ | 45.8 | 45.8 ± 7.9 | CMC ([4]; ref Anatrace catalogue): 230 µM; CMC ([4]; weight/volume, ref Anatrace catalogue): 0.015%; stripping of lipid antigens from CD1c (in words) (CD1c): could efficiently strip lipid antigens away
